The record followed here is patent US11541132B2, “Radiolabeled compounds” (Hoffmann-La Roche Inc., priority 2017, dated 2023).

Like-named read-outs stand apart in the source and are kept apart here.

In assay [1] the target is T1, native aSyn aggregates in A30P transgenic mouse brain sections (Homo sapiens, UniProt P37840, A30P).
T1 construct: from tissue; host or cells: brain sections (midbrain and pons as ROI) of A30P transgenic mice, line B6.D2-Tg(Thy1-SNCA*30P)31Pjk
Briefly: aSyn in vitro displacement assay ([3H]Example-3 autoradiography). Format: binding, mutant human aSyn gene). The settings on record: read-out: PCT_INHIB A30P @ 1 μM (% displacement of [3H]Example-3). For orientation: In a radioligand displacement assay an active substance lowers the binding of a labelled ligand.

The target in assay [2] is T2, native Aβ aggregates in human AD brain tissue sections (Homo sapiens, UniProt P05067).
T2 construct: native Aβ aggregates in human AD brain tissue samples; from tissue; host or cells: human AD brain tissue sections
T2 sequence (P05067 672-713 limits assumed): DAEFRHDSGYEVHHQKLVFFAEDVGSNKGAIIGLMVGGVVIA
Briefly: Aβ in vitro displacement assay (selectivity counterscreen, [3H]Example 3 autoradiography). Format: binding. The settings on record: read-out: sel. counterscreen PCT_INHIB AD @ 1 μM (% displacement of [3H]Example 3). On the technique in general: The purpose of a counterscreen is to sort out artefacts and off-target activity.

Setting [3] is: 1 μM compound, 3 nM [3H]Example-3, A30P transgenic mouse brain sections.
Where [4] appears, read: 1 μM compound, 3 nM [3H]Example 3, human AD brain sections.

With `COc1ccc(C(=O)Nc2ccc(N3CCN(c4ccc(C)cc4)CC3)cc2)cc1` [Example 109, 4-Methoxy-N-[4-[4-(p-tolyl)piperazin-1-yl]phenyl]benzamide], the inhibition at 1 µM in assay [1] (setting [3]) amounted to 96%; in assay [2] (setting [4]), 97%.

On to `N#Cc1ccc(N2CCN(c3ccc(NC(=O)c4ccc(O)cc4)cc3)CC2)nc1` [Example 108, N-(4-(4-(5-cyanopyridin-2-yl)piperazin-1-yl)phenyl)-4-hydroxybenzamide], for which the values for the inhibition at 1 µM in assay [1] (setting [3]) and in assay [2] (setting [4]) were 81% and 92%, respectively.

Take `COc1ccc(C(=O)Nc2ccc(N3CCN(c4ncccn4)CC3)cc2)cc1` [Example 49, 4-Methoxy-N-{4-[4-(pyrimidin-2-yl)piperazin-1-yl]phenyl}benzamide]: the results for the inhibition at 1 µM in assay [1] (setting [3]) and in assay [2] (setting [4]) were 92% and 95%, respectively.

Consider `O=C(Nc1ccc(N2CCN(c3ccccn3)CC2)cc1)c1ccc(OCC(O)CF)cc1` (racemic) [Example 125, rac-4-(3-Fluoro-2-hydroxypropoxy)-N-(4-(4-(pyridin-2-yl)piperazin-1-yl)phenyl)benzamide], for which the inhibition at 1 µM in assay [1] (setting [3]) was determined as 82%; in assay [2] (setting [4]) it was 92%.

Take `COc1ccc(C(=O)Nc2ccc(N3CCN(c4cccc(OC)n4)CC3)cc2)cc1` [Example 68, 4-Methoxy-N-{4-[4-(6-methoxypyridin-2-yl)piperazin-1-yl]phenyl}benzamide]: the inhibition at 1 µM in assay [1] (setting [3]) worked out at 96%; in assay [2] (setting [4]) it was 90%.

In the case of `COc1ccc(C(=O)Nc2ccc(N3CCN(c4ccc(C#N)cc4)CC3)cc2)c(F)c1` [Example 114, N-[4-[4-(4-Cyanophenyl)piperazin-1-yl]phenyl]-2-fluoro-4-methoxy-benzamide], the inhibition at 1 µM in assay [1] (setting [3]) turned out to be 91%; in assay [2] (setting [4]), 92%.

On to `COc1ccc(C(=O)Nc2ccc(N3CCN(c4ccc(C#N)nc4)CC3)cc2)cc1` [Example 154, N-(4-(4-(6-Cyanopyridin-3-yl)piperazin-1-yl)phenyl)-4-methoxybenzamide], for which the inhibition at 1 µM in assay [1] (setting [3]) is 98%; in assay [2] (setting [4]), 96%.

Regarding `CC(C)(C)[Si](C)(C)OC(CF)COc1ccc(C(=O)Nc2ccc(N3CCN(c4nccs4)CC3)cc2)cc1` (racemic) [Example 126, rac-4-(2-((tert-Butyldimethylsilyl)oxy)-3-fluoropropoxy)-N-(4-(4-(thiazol-2-yl)piperazin-1-yl)phenyl)benzamide], the inhibition at 1 µM is 82% in assay [1] and 89% in assay [2].

For `COc1ccc(C(=O)Nc2ccc(N3CCN(c4cc(Cl)c(C#N)cn4)CC3)cc2)cc1` [Example 152, N-(4-(4-(4-Chloro-5-cyanopyridin-2-yl)piperazin-1-yl)phenyl)-4-methoxybenzamide], the figures for the inhibition at 1 µM in assay [1] (setting [3]) and in assay [2] (setting [4]) were 90% and 88%, respectively.

For the molecule `N#Cc1ccc(N2CCN(c3ccc(NC(=O)c4ccc(OCCOCCF)cc4)cc3)CC2)nc1` [Example 121, N-(4-(4-(5-cyanopyridin-2-yl)piperazin-1-yl)phenyl)-4-(2-(2-fluoroethoxy)ethoxy)benzamide], the inhibition at 1 µM was 87% in assay [1] (setting [3]) and 86% in assay [2] (setting [4]).

For the molecule `N#Cc1ccc(N2CCN(c3ccc(NC(=O)c4ccc(OCCOCCF)cc4)cc3)CC2)cc1` [Example 122, N-(4-(4-(4-cyanophenyl)piperazin-1-yl)phenyl)-4-(2-(2-fluoroethoxy)ethoxy) benzamide], the inhibition at 1 µM came to 88% in assay [1] (setting [3]) and 85% in assay [2] (setting [4]).

`COc1ccc(C(=O)Nc2ccc(N3CCN(c4ccc(C#N)cc4)CC3)cc2)cc1F` [Example 163, N-(4-(4-(4-Cyanophenyl)piperazin-1-yl)phenyl)-3-fluoro-4-methoxybenzamide]: the values for the inhibition at 1 µM in assay [1] (setting [3]) and in assay [2] (setting [4]) were 94% and 92%, respectively.

Take `COc1ccc(C(=O)Nc2ccc(N3CCN(c4cccs4)CC3)cc2)cc1` [Example 66, 4-Methoxy-N-{4-[4-(thiophen-2-yl)piperazin-1-yl]phenyl}benzamide]: the inhibition at 1 µM in assay [1] (setting [3]) was found to be 104%; in assay [2] (setting [4]) it was 103%.
